“And” between values parts separate entries of the source, which are not always exact repeats. Equal values may be shown once.
Tests used:
[1] = tested on: Puccinia recondita f. Sp. Tritici; test: Puccinia recondita f. sp. tritici / wheat / leaf disc preventative (brown rust); format: in vivo; conditions: foliar, 200 ppm in the applied formulation, wheat leaf segments cv. Kanzler, preventative (inoculated 1 day after application), compared to untreated, read-out: disease control
Method in brief: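 Wheat leaf segments (cv. Kanzler) on water agar were sprayed with test compound (DMSO stock diluted in 0.025% Tween20/water), then spore-inoculated 1 day later. Incubation at 19° C., 75% rh, 12 h light/12 h dark; percent disease control versus untreated segments scored 7 to 9 days after application. Tested at 200 ppm.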

[2] = tested on: Glomerella lacenarium (Colletotrichum lagenarium); test: Glomerella lagenarium liquid culture / cucumber / preventative (anthracnose); format: cell-based; conditions: Colletotrichum orbiculare; 20 ppm in the applied formulation; liquid culture (PDB), growth inhibition measured photometrically 3 to 4 days after application; compared to untreated; read-out: disease control
Method in brief: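 Conidia from cryogenic storage were mixed into potato dextrose broth. This was added to compound diluted from DMSO into 0.025% Tween20, tested at 20 ppm. Plates were incubated in the dark at 24 °C and 96% relative humidity, and growth was read photometrically after 2–7 days as % activity versus untreated check.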

[3] = tested on: Phakopsora pachyrhizi; test: Phakopsora pachyrhizi / soybean / leaf disc preventative (Asian soybean rust); format: in vivo; conditions: foliar, 200 ppm in the applied formulation, soybean leaf disks, compared to untreated, read-out: disease control
Method in brief: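 Read-out is percent disease control relative to untreated check discs, assessed once untreated discs show adequate disease, 12 to 14 days after application. Compounds, tested at 200 ppm in the applied formulation, are sprayed onto soybean leaf discs one day before inoculation with a spore suspension.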

[4] = tested on: Puccinia recondita f. Sp. Tritici; test: Puccinia recondita f. sp. tritici / wheat / leaf disc curative (brown rust); format: in vivo; conditions: foliar, 24 h, 200 ppm in the applied formulation, wheat leaf segments cv. Kanzler, curative (applied 1 day after inoculation), compared to untreated, read-out: disease control
Method in brief: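 Read-out is percent disease control relative to untreated segments, assessed 6 to 8 days after treatment once check disease is adequate. Kanzler wheat leaf segments on agar receive fungal spores, then test compound (DMSO stock diluted in 0.025% Tween20 or water) 1 day later, under 19° C and 75% relative humidity.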

Row | melting point | Structure (SMILES) | pest or weed control at 200 ppm [1] | inhibition of growth at 20 ppm [2] | pest or weed control at 200 ppm [3] | pest or weed control at 200 ppm [4]
1 | 127 to 128 °C | COCC(=O)NCc1ccc(-c2noc(C(F)(F)F)n2)cc1 [Compound 1.25, 2-methoxy-N-[[4-[5-(trifluoromethyl)-1,2,4-oxadiazol-3-yl]phenyl]methyl]acetamide] | ≥ 80% | ≥ 80% | ≥ 80% | ≥ 80%
2 | 99 to 110 °C | CCC(=O)NCc1ccc(-c2noc(C(F)(F)F)n2)cc1F [Compound 1.26, N-[[2-fluoro-4-[5-(trifluoromethyl)-1,2,4-oxadiazol-3-yl]phenyl]methyl]propanamide] | ≥ 80% | ≥ 80% | ≥ 80% | ≥ 80%
3 | 107 to 112 °C | O=C(CO)NCc1ccc(-c2noc(C(F)(F)F)n2)cc1 [Compound 1.27, 2-hydroxy-N-[[4-[5-(trifluoromethyl)-1,2,4-oxadiazol-3-yl]phenyl]methyl]acetamide] | ≥ 80% | ≥ 80% | – | ≥ 80%
4 | 90 to 94 °C | CC(O)C(=O)NCc1ccc(-c2noc(C(F)(F)F)n2)cc1 (stereo not drawn) [Compound 1.28, 2-hydroxy-N-[[4-[5-(trifluoromethyl)-1,2,4-oxadiazol-3-yl]phenyl]methyl]propanamide] | ≥ 80% | ≥ 80% | ≥ 80% | ≥ 80%
5 | 133.6 to 135 °C and 133 to 145 °C | CCC(=O)NCCc1ccc(-c2noc(C(F)(F)F)n2)cc1 [Compound 1.29, N-[2-[4-[5-(trifluoromethyl)-1,2,4-oxadiazol-3-yl]phenyl]ethyl]propanamide] | ≥ 80% | ≥ 80% | ≥ 80% | ≥ 80%
6 | 163 to 165 °C | CCC(=O)NCc1ccc(-c2noc(C(F)(F)F)n2)cc1OC [Compound 1.30, N-[[2-methoxy-4-[5-(trifluoromethyl)-1,2,4-oxadiazol-3-yl]phenyl]methyl]propanamide] | – | – | – | –
7 | 100 to 102 °C | CCC(=O)NCc1ccc(-c2noc(C(F)(F)F)n2)cc1C(F)(F)F [Compound 1.31, N-[[2-(trifluoromethyl)-4-[5-(trifluoromethyl)-1,2,4-oxadiazol-3-yl]phenyl]methyl]propanamide] | – | – | – | –
8 | 126 to 130 °C | CCC(=O)NCc1ccc(-c2noc(C(F)(F)F)n2)cc1Cl [Compound 1.32, N-[[2-chloro-4-[5-(trifluoromethyl)-1,2,4-oxadiazol-3-yl]phenyl]methyl]propanamide] | ≥ 80% | ≥ 80% | ≥ 80% | –
9 | 66 to 70 °C | CC(OC(F)F)C(=O)NCc1ccc(-c2noc(C(F)(F)F)n2)cc1 (stereo not drawn) [Compound 1.33, 2-(difluoromethoxy)-N-[[4-[5-(trifluoromethyl)-1,2,4-oxadiazol-3-yl]phenyl]methyl]propanamide] | ≥ 80% | ≥ 80% | ≥ 80% | ≥ 80%
10 | 108 to 110 °C | CCC(=O)NCc1ccc(-c2noc(C(F)(F)F)n2)c(F)c1 [Compound 1.34, N-[[3-fluoro-4-[5-(trifluoromethyl)-1,2,4-oxadiazol-3-yl]phenyl]methyl]propanamide] | ≥ 80% | ≥ 80% | ≥ 80% | ≥ 80%
11 | 112 to 118 °C | CCC(=O)NCc1ccc(-c2noc(C(F)(F)F)n2)c(F)c1F [Compound 1.54, N-[[2,3-difluoro-4-[5-(trifluoromethyl)-1,2,4-oxadiazol-3-yl]phenyl]methyl]propanamide] | ≥ 80% | ≥ 80% | ≥ 80% | ≥ 80%
12 | 140 to 143 °C | CCC(=O)NCc1ccc(-c2noc(C(F)(F)F)n2)cc1C [Compound 1.81, N-[[2-methyl-4-[5-(trifluoromethyl)-1,2,4-oxadiazol-3-yl]phenyl]methyl]propanamide] | – | ≥ 80% | – | –
13 | 113 to 118 °C | COCCC(=O)NC1(c2ccc(-c3noc(C(F)(F)F)n3)cc2)CC1 [Compound 1.98, 3-methoxy-N-[1-[4-[5-(trifluoromethyl)-1,2,4-oxadiazol-3-yl]phenyl]cyclopropyl]propanamide] | ≥ 80% | ≥ 80% | – | ≥ 80%
14 | 95 to 98 °C | CC(C)(O)C(=O)NCc1ccc(-c2noc(C(F)(F)F)n2)cc1 [Compound 1.104, 2-hydroxy-2-methyl-N-[[4-[5-(trifluoromethyl)-1,2,4-oxadiazol-3-yl]phenyl]methyl]propanamide] | ≥ 80% | ≥ 80% | – | ≥ 80%
15 | 99 to 103 °C | COC(C)C(=O)NCc1ccc(-c2noc(C(F)(F)F)n2)nc1 (stereo not drawn) [Compound 1.105, 2-methoxy-N-[[6-[5-(trifluoromethyl)-1,2,4-oxadiazol-3-yl]-3-pyridyl]methyl]propanamide] | ≥ 80% | ≥ 80% | – | ≥ 80%
16 | 151 to 153 °C | CC(C)C(=O)NCc1ccc(-c2noc(C(F)(F)F)n2)nc1 [Compound 1.106, 2-methyl-N-[[6-[5-(trifluoromethyl)-1,2,4-oxadiazol-3-yl]-3-pyridyl]methyl]propanamide] | ≥ 80% | – | – | ≥ 80%
17 | 81 to 83 °C and 81 to 83.1 °C | CC(C)(C)OC(=O)NCCc1ccc(-c2noc(C(F)(F)F)n2)cc1 [Compound 2.1, tert-butyl N-[2-[4-[5-(trifluoromethyl)-1,2,4-oxadiazol-3-yl]phenyl]ethyl]carbamate] | ≥ 80% | ≥ 80% | – | ≥ 80%
18 | 60 to 66 °C | CCOCCOC(=O)NCc1ccc(-c2noc(C(F)(F)F)n2)cc1C(F)(F)F [Compound 2.2, 2-ethoxyethyl N-[[2-(trifluoromethyl)-4-[5-(trifluoromethyl)-1,2,4-oxadiazol-3-yl]phenyl]methyl]carbamate] | – | ≥ 80% | – | –
19 | 174.1 to 176.4 °C | CCCNC(=O)NCc1ccc(-c2noc(C(F)(F)F)n2)cc1 [Compound 3.6, 1-propyl-3-[[4-[5-(trifluoromethyl)-1,2,4-oxadiazol-3-yl]phenyl]methyl]urea] | ≥ 80% | ≥ 80% | ≥ 80% | –
20 | – | CCNC(=O)NCc1ccc(-c2noc(C(F)(F)F)n2)cc1 [Compound 3.10, 1-ethyl-3-[[4-[5-(trifluoromethyl)-1,2,4-oxadiazol-3-yl]phenyl]methyl]urea] | ≥ 80% | ≥ 80% | ≥ 80% | ≥ 80%
21 | – | CCN(CC)C(=O)NCc1ccc(-c2noc(C(F)(F)F)n2)cc1 [Compound 3.12, 1,1-diethyl-3-[[4-[5-(trifluoromethyl)-1,2,4-oxadiazol-3-yl]phenyl]methyl]urea] | ≥ 80% | ≥ 80% | ≥ 80% | ≥ 80%
22 | – | CCN(C)C(=O)NCc1ccc(-c2noc(C(F)(F)F)n2)cc1 [Compound 3.13, 1-ethyl-1-methyl-3-[[4-[5-(trifluoromethyl)-1,2,4-oxadiazol-3-yl]phenyl]methyl]urea] | ≥ 80% | ≥ 80% | ≥ 80% | ≥ 80%
23 | – | CCONC(=O)NCc1ccc(-c2noc(C(F)(F)F)n2)cc1 [Compound 3.14, 1-ethoxy-3-[[4-[5-(trifluoromethyl)-1,2,4-oxadiazol-3-yl]phenyl]methyl]urea] | ≥ 80% | ≥ 80% | ≥ 80% | ≥ 80%
24 | – | C=CCNC(=O)NCc1ccc(-c2noc(C(F)(F)F)n2)cc1 [Compound 3.16, 1-allyl-3-[[4-[5-(trifluoromethyl)-1,2,4-oxadiazol-3-yl]phenyl]methyl]urea] | ≥ 80% | ≥ 80% | ≥ 80% | ≥ 80%
25 | – | CONC(=O)NCc1ccc(-c2noc(C(F)(F)F)n2)cc1 [Compound 3.17, 1-methoxy-3-[[4-[5-(trifluoromethyl)-1,2,4-oxadiazol-3-yl]phenyl]methyl]urea] | ≥ 80% | ≥ 80% | ≥ 80% | ≥ 80%

Source: patent US10501425B2, “Microbiocidal oxadiazole derivatives” (SYNGENTA PARTICIPATIONS AG, priority 2015, dated 2019)
